Data taken from patent US10723741B1, “DNA polymerase IIIC inhibitors and use thereof” (Acurx Pharmaceuticals, LLC, priority 2018, dated 2020).
Converted amounts (≈) assume the structure as drawn.

What was measured:
Assay type in all cases: cell-based
[1] = tested on: Enterococcus faecium ATCC 700221 (VRE); test: Broth microdilution MIC, E. faecium ATCC 700221 (VRE); conditions: Enterococcus faecium; broth microdilution, 37° C., 20 hours; read-out: MIC E. faecium ATCC 700221 (VRE)
Procedure, shortened: (§1)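 Broth microdilution in strain-specific test medium with ~5.0×10^5 cfu/ml inoculum, 1% DMSO and two-fold compound dilutions from 64 to 0.0625 μg/ml. Plates were held 20 hours at 37° C in ambient air. S. pneumoniae colonies were grown beforehand on blood agar in 5% CO2.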

[2] = tested on: Streptococcus pneumoniae ATCC 49619; test: Broth microdilution MIC, S. pneumoniae ATCC 49619; conditions: ATCC49619, broth microdilution, 37° C., 20 hours, read-out: MIC S. pneumoniae ATCC 49619
Procedure, shortened: as §1

[3] = tested on: Enterococcus faecalis ATCC 29212; test: Broth microdilution MIC, E. faecalis ATCC 29212; conditions: ATCC29212, broth microdilution, 37° C., 20 hours, read-out: MIC E. faecalis ATCC 29212
Procedure, shortened: as §1

[4] = tested on: Bacillus subtilis ATCC 6633; test: Broth microdilution MIC, B. subtilis ATCC 6633; conditions: ATCC6633, broth microdilution, 37° C., 20 hours, read-out: MIC B. subtilis ATCC 6633
Procedure, shortened: as §1

[5] = tested on: Staphylococcus aureus NRS384 (MRSA); test: Broth microdilution MIC, S. aureus NRS384 (MRSA); conditions: Staphylococcus aureus; S. aureus NRS 384; broth microdilution, 37° C., 20 hours; read-out: MIC NRS 384 (MRSA)
Procedure, shortened: as §1

[6] = tested on: Staphylococcus aureus ATCC 29213 (MSSA); test: Broth microdilution MIC, S. aureus ATCC 29213 (MSSA); conditions: broth microdilution, 37° C., 20 hours, read-out: MIC S. aureus ATCC 29213 (MSSA)
Procedure, shortened: as §1

[7] = tested on: Escherichia coli ATCC 25922; test: Broth microdilution MIC, E. coli ATCC 25922 (MHIIB w & w/o 4 mM EDTA); conditions: broth microdilution, 37° C., 20 hours; for MIC: Escherichia coli, ATCC25922, without EDTA, read-out: MIC E. coli ATCC 25922; for MIC E. coli ATCC 25922 + 4 mM EDTA: with 4 mM EDTA
Procedure, shortened: as §1

| MIC [1] [µg/mL] | MIC [2] [µg/mL] | MIC [3] [µg/mL] | MIC [4] [µg/mL] | MIC [5] [µg/mL] | MIC [6] [µg/mL] | MIC [7] [µg/mL] | MIC E. coli ATCC 25922 + 4 mM EDTA [7] [µg/mL] | Structure (SMILES) |
| --- | --- | --- | --- | --- | --- | --- | --- | --- |
| 32 (≈ 74.9 µM) | 16 (≈ 37.4 µM) | > 64 | 16 (≈ 37.4 µM) | 32 (≈ 74.9 µM) | 64 (≈ 150 µM) | > 64 | >64 | CP(C)(=O)CCCCn1nc(F)c2nc(NCc3ccc(F)c(F)c3)[nH]c(=O)c21 [Compound 314, 5-[(3,4-Difluorophenyl)methylamino]-1-(4-dimethylphosphorylbutyl)-3-fluoro-6H-pyrazolo[4,3-d]pyrimidin-7-one] |
| 2 (≈ 5.47 µM) | 2 (≈ 5.47 µM) | 8 (≈ 21.9 µM) | 1 (≈ 2.74 µM) | 4 (≈ 10.9 µM) | 4 (≈ 10.9 µM) | > 64 | >64 | O=c1[nH]c(NCc2ccc(F)c(F)c2)nc2c(F)nn(CC3CCO3)c12 (stereo not drawn) [Compound 315, 5-[(3,4-difluorophenyl)methylamino]-3-fluoro-1-(oxetan-2-ylmethyl)-6H-pyrazolo[4,3-d]pyrimidin-7-one] |
| 4 (≈ 10.6 µM) | 2 (≈ 5.31 µM) | 8 (≈ 21.3 µM) | 2 (≈ 5.31 µM) | 2 (≈ 5.31 µM) | 4 (≈ 10.6 µM) | > 64 | >64 | O=c1[nH]c(NCc2ccc(F)c(F)c2)nc2c(F)nn(Cc3cocn3)c12 [Compound 316, 5-((3,4-Difluorobenzyl)amino)-3-fluoro-1-(oxazol-4-ylmethyl)-1H-pyrazolo[4,3-d]pyrimidin-7(6H)-one] |

Further lines, the molecule ahead of its results:

| Structure (SMILES) | MIC [1] [µg/mL] | MIC [2] [µg/mL] | MIC [3] [µg/mL] | MIC [4] [µg/mL] | MIC [5] [µg/mL] | MIC [6] [µg/mL] | MIC [7] [µg/mL] | MIC E. coli ATCC 25922 + 4 mM EDTA [7] [µg/mL] |
| --- | --- | --- | --- | --- | --- | --- | --- | --- |
| Cc1cc(CNc2nc3c(F)nn(CCOCCO)c3c(=O)[nH]2)ccc1F [Compound 311, 3-Fluoro-5-((4-fluoro-3-methylbenzyl)amino)-1-(2-(2-hydroxyethoxy)ethyl)-1H-pyrazolo[4,3-d]pyrimidin-7(6H)-one] | 16 (≈ 42.2 µM) | 32 (≈ 84.4 µM) | 16 (≈ 42.2 µM) | 8 (≈ 21.1 µM) | 16 (≈ 42.2 µM) | 16 (≈ 42.2 µM) | > 64 | >64 |
| Cc1ccc(CNc2nc3c(F)nn(CCOCCO)c3c(=O)[nH]2)cc1F [Compound 313, 3-Fluoro-5-((3-fluoro-4-methylbenzyl)amino)-1-(2-(2-hydroxyethoxy)ethyl)-1H-pyrazolo[4,3-d]pyrimidin-7(6H)-one] | 8 (≈ 21.1 µM) | 8 (≈ 21.1 µM) | 16 (≈ 42.2 µM) | 2 (≈ 5.27 µM) | 16 (≈ 42.2 µM) | 8 (≈ 21.1 µM) | > 64 | >64 |
| O=C(c1cccnc1)N1CCC(n2nc(F)c3nc(NCc4ccc(Cl)c(Cl)c4)[nH]c(=O)c32)CC1 [Compound 317, 5-[(3,4-Dichlorophenyl)methylamino]-3-fluoro-1-[1-(pyridine-3-carbonyl)-4-piperidyl]-6H-pyrazolo[4,3-d]pyrimidin-7-one] | 2 (≈ 3.87 µM) | 4 (≈ 7.75 µM) | 4 (≈ 7.75 µM) | 1 (≈ 1.94 µM) | 4 (≈ 7.75 µM) | 4 (≈ 7.75 µM) | > 64 | >64 |
| O=C(c1cccnc1)N1CCC(n2nc(Cl)c3nc(NCc4ccc(Cl)c(Cl)c4)[nH]c(=O)c32)CC1 [Compound 318, 3-Chloro-5-[(3,4-dichlorophenyl)methylamino]-1-[1-(pyridine-3-carbonyl)-4-piperidyl]-6H-pyrazolo[4,3-d]pyrimidin-7-one] | 1 (≈ 1.88 µM) | 4 (≈ 7.51 µM) | 2 (≈ 3.75 µM) | 1 (≈ 1.88 µM) | 2 (≈ 3.75 µM) | 2 (≈ 3.75 µM) | > 64 | >64 |
| Cl.O=C(c1ccncc1)N1CCC(n2nc(F)c3nc(NCc4ccc(F)c(F)c4)[nH]c(=O)c32)CC1 [Compound 319, 5-((3,4-difluorobenzyl)amino)-3-fluoro-1-(1-isonicotinoylpiperidin-4-yl)-1H-pyrazolo[4,3-d]pyrimidin-7(6H)-one hydrochloride] | 4 | 4 | 8 | 2 | 8 | 8 | > 64 | >64 |
| O=c1c2c(cnn2CCOCCO)nc(NCc2ccc(Cl)c(Cl)c2)n1COP(=O)(O)O [Compound 320, (5-((3,4-dichlorobenzyl)amino)-1-(2-(2-hydroxyethoxy)ethyl)-7-oxo-1H-pyrazolo[4,3-d]pyrimidin-6(7H)-yl)methyl dihydrogen phosphate] | > 64 | > 64 | > 64 | > 64 | > 64 | > 64 | > 64 | >64 |
